Assay results as given in paper PMC6843816, “Angiotensin Converting Enzyme (ACE)-Peptide Interactions: Inhibition Kinetics, In Silico Molecular Docking and Stability Study of Three Novel Peptides Generated from Palm Kernel Cake Proteins” (Biomolecules, 2019).
Values joined by “and” are separate entries in the source; they are usually repeats but may differ in a detail not shown here. Equal values may be shown once. Read-outs that look alike come from different tables or passages of the source. Peptide text beside a SMILES is read from it.

Legend:
[1] = biological target: T1, angiotensin-converting enzyme (ACE) (Oryctolagus cuniculus, UniProt P12822); test: Kinetics study of ACE inhibition (Michaelis-Menten and Lineweaver-Burk plots, HHL substrate); format: biochemical, rabbit; conditions: from plot of 1/Vmax against inhibitor concentration; read-out: Kiu (mM) (enzyme-inhibitor dissociation constant)
T1 construct: Angiotensin-I-converting enzyme (rabbit lung); purchased Sigma Chemical Co., (St Louis, MO, USA); host or cells: rabbit lung tissue
T1 sequence (P12822 34-1310): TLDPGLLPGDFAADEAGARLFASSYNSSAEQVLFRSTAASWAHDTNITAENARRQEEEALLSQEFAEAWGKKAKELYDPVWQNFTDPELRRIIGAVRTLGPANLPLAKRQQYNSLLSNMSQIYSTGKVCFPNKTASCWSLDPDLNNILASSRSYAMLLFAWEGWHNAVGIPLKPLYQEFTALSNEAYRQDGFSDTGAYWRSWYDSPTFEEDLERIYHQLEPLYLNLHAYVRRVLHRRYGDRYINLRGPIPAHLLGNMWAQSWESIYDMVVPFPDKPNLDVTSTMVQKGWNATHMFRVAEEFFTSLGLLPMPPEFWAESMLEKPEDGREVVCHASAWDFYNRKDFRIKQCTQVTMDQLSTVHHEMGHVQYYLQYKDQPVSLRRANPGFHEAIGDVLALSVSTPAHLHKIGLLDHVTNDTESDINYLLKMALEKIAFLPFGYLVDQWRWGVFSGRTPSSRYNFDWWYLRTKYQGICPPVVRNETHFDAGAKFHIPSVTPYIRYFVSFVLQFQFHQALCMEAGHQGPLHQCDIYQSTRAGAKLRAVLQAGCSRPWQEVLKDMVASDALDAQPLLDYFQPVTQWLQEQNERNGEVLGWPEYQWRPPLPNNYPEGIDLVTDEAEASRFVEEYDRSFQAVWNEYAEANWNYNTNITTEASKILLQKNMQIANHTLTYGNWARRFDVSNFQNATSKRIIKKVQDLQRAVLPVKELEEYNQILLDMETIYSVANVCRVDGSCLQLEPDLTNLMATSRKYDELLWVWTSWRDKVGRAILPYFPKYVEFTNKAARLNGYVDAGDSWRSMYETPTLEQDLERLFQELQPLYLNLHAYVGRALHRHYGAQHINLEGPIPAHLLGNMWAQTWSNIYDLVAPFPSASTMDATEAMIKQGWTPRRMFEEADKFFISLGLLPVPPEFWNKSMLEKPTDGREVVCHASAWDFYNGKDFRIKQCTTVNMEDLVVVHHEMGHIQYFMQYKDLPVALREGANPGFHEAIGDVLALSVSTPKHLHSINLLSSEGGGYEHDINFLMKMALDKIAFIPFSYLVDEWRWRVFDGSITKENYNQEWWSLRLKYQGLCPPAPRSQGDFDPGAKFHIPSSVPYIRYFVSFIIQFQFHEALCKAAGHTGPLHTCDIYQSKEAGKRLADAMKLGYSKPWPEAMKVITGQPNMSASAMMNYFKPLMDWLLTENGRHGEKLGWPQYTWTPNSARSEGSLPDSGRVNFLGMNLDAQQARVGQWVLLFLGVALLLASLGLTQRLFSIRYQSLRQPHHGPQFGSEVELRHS
Procedure: Mode of enzyme inhibition, maximum initial velocity (Vmax), Michaelis-Menten constant (Km), inhibitory constant (Ki) and catalytic efficiency were determined using Michaeles-Menten and Lineweaver-Burk plots of 1/v versus 1/[S].
Enzyme activity was shown as nmol hippuric acid produced per min of enzymatic reaction. Michaelis-Menten and Lineweaver-Burk plots were created using GRAPHPAD PRISM 6.07 (GraphPad, Software Inc., San Diego, CA, USA) software. Vmax and Km were calculated using the same software. Kiu was calculated from the plot of 1/Vmax against inhibitor concentration at the intercept on the inhibitor concentration axis).

[2] = biological target: T1, angiotensin-converting enzyme (ACE); test: Peptide stability study: hydrolysis of peptides by ACE, RP-HPLC; format: in vitro ADME, rabbit; conditions: 37 °C, peptide 4 mM; for metabolised at 0.5 h, 2.4 mM / metabolised at 1 h, 2.4 mM / metabolised at 2 h, 2.4 mM / metabolised at 3 h, 2.4 mM: rabbit, isolated angiotensin-converting enzyme (ACE), read-out: Cleavage (%); for metabolised at 1 h, 2.4 mM: incubation with ACE 1 h; for metabolised at 2 h, 2.4 mM: incubation with ACE 2 h
Procedure: Peptide stability study was carried out using the method described by Forghani et al. and Yang, Marczak, Yokoo, Usui and Yoshikawa with modifications. Each peptide solution (225 µL), at a concentration of 4 mM, was incubated with 150 µl of ACE (100 mU/mL) at 37 °C and incubation time of 0, 0.5, 1, 2 and 3 h. Peptide samples were withdrawn at their respective incubation time separately and kept in ice prior to analysis by HPLC. A 20-µL sample was loaded onto a Hypersil GOLD C18 column (4.6 × 250 mm) attached to a LC 20AT apparatus (Shimadzu Co., Kyoto, Japan). The column was conditioned with eluent A (0.1% TFA in DW) and eluted with 100% eluent A from 0 to 10 min. The peptides were eluted with eluent B (0.1% TFA in CH3CN) with a gradient elution of 0–100% for 10–50 min. The absorbance was read at 215 nm.

[3] = biological target: T1, angiotensin-converting enzyme (ACE); test: ACE-inhibitory capacity of peptides with and without pre-incubation with ACE; IC50; format: biochemical, rabbit; conditions: for IC50: unit given, not in Table 5, read-out: ACE Inhibition (IC50); for ACE-Inhibitory Capacity (%) Without Pre-Incubation: without pre-incubation with ACE
ACE = conditions: read-out: Kiu, cited from earlier work
[4] = peptides generated from Stichopus horrens

Ki [1] | Cleavage (%) ([2]; incubation with ACE 0.5 h) | Cleavage (%) ([2]; incubation with ACE 3 h) | metabolised at 0.5 h, 2.4 mM ([2]; incubation with ACE 0.5 h) | metabolised at 1 h, 2.4 mM [2] | metabolised at 2 h, 2.4 mM [2] | metabolised at 3 h, 2.4 mM ([2]; incubation with ACE 3 h) | IC50 [3] | ACE-Inhibitory Capacity (%) With Pre-Incubation [3] | ACE-Inhibitory Capacity (%) Without Pre-Incubation [3] | Molecule | Ki (ACE; [4]) | Ki (ACE; ref Udenigwe, et al. 31)
3.18 mM | 46% | 97% | 46 ± 1.5% | 65 ± 2.6% | 86 ± 3.1% | 97 ± 3.4% | 239 µM | 75 ± 2.11% | 70 ± 1.15% | CC(C)C[C@H](NC(=O)[C@H](CC(C)C)NC(=O)[C@H](C)NC(=O)[C@H](Cc1ccc(O)cc1)NC(=O)[C@H](Cc1c[nH]cn1)NC(=O)CNC(=O)[C@H](C)NC(=O)CNC(=O)[C@H](CCC(=O)O)NC(=O)[C@H](CCC(N)=O)NC(=O)[C@@H](NC(=O)CN)C(C)C)C(=O)O [GVQEGAGHYALL] (H-GVQEGAGHYALL-OH; N-terminus and C-terminus assumed) | – | –
2 mM | 43% | 68% | 43 ± 2% | 42 ± 1.6% | 63 ± 3% | 68 ± 3.4% | 202 µM | 56 ± 1.34% | 55 ± 1.81% | C[C@H](NC(=O)[C@@H](N)Cc1c[nH]c2ccccc12)C(=O)N[C@@H](Cc1ccccc1)C(=O)N[C@@H](CO)C(=O)O [WAFS] (H-WAFS-OH; N-terminus and C-terminus assumed) | – | –
– | – | – | – | – | – | – | – | – | – | CRQNTLGHNTQTSIAQ | 210 µM | –
– | – | – | – | – | – | – | – | – | – | SAAVGSP | 1570 µM | –
– | – | – | – | – | – | – | – | – | – | VSRHFASYAN | 610 µM | –
– | – | – | – | – | – | – | – | – | – | WVYY | – | 60 µM

Molecule | Ki [1] | Cleavage (%) ([2]; incubation with ACE 0.5 h) | Cleavage (%) ([2]; incubation with ACE 3 h) | metabolised at 0.5 h, 2.4 mM ([2]; incubation with ACE 0.5 h) | metabolised at 1 h, 2.4 mM [2] | metabolised at 2 h, 2.4 mM [2] | metabolised at 3 h, 2.4 mM ([2]; incubation with ACE 3 h) | IC50 [3] | ACE-Inhibitory Capacity (%) With Pre-Incubation [3] | ACE-Inhibitory Capacity (%) Without Pre-Incubation [3] | Ki (ACE; [4]) | Ki (ACE; ref Udenigwe, et al. 31)
CC(C)C[C@H](NC(=O)[C@H](CC(C)C)NC(=O)[C@H](CC(C)C)NC(=O)[C@@H](N)Cc1ccc(O)cc1)C(=O)N[C@@H](CCCCN)C(=O)O [YLLLK] (H-YLLLK-OH; N-terminus and C-terminus assumed) | – | 91.7% | 94% and 94.3% | 92 ± 2.8% | 93 ± 1.9% | 94 ± 3% | 94 ± 2.7% | 47 µM | 80 ± 2.04% | 100 ± 2.99% | – | –
